The target of the test is T1, Androgen Receptor (Homo sapiens, UniProt P10275).
T1 construct: endogenous in cells; host or cells: VCaP cells
T1 sequence (P10275 1-920): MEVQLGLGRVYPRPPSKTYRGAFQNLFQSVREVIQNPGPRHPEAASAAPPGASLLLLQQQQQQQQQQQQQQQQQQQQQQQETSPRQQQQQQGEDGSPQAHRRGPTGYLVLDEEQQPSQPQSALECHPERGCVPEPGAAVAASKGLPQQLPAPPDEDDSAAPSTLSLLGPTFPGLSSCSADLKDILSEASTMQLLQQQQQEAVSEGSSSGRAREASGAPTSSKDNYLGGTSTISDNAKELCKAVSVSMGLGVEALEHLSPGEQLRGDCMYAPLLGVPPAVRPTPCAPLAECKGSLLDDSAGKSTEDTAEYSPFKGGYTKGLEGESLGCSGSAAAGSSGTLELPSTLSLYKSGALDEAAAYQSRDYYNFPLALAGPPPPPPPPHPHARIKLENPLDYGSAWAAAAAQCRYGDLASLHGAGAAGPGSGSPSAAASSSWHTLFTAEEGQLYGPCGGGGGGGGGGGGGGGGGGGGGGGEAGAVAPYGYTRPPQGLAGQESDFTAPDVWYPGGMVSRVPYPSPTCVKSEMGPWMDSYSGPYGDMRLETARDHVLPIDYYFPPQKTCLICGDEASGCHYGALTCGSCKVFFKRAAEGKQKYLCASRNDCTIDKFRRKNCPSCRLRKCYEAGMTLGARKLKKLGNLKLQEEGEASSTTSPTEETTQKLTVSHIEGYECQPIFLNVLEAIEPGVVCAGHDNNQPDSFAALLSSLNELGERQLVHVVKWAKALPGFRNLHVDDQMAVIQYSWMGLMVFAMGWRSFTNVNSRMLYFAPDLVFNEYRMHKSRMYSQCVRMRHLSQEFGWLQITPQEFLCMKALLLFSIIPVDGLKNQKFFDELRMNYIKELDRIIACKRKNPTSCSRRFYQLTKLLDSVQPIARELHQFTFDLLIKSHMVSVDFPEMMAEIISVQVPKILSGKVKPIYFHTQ
Kind of test: Androgen Receptor ELISA assay (PathScan AR ELISA) in VCaP cells: AR degradation, Dmax and DC50. Conditions: VCaP cells (Table 32); for Dmax: VCaP, highest percentage of Androgen Receptor degradation observed, read-out: VCaP Dmax (%); for DC50: concentration that caused 50% Androgen Receptor degradation, read-out: VCaP DC50. The format is cell-based. A digest of the protocol: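 VCaP cells, 30,000/well, grown ≥3 days in phenol red-free RPMI with 5% charcoal-stripped FBS; compound added in 0.1% DMSO with 0.1 nM R1881, 7 half-log doses, 24 h. Lysate AR quantified by PathScan sandwich ELISA, HRP/TMB read at 450 nm, giving DC50 and Dmax.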
A general note: ELISA stands for enzyme-linked immunosorbent assay.

Broadly, the Dmax is the largest share of the target that was removed. A word on the DC50: it is the concentration at which degradation of the target reaches its halfway point.

The structures appear in SMILES notation.

For the compound `Cc1ncsc1-c1ccc([C@@H](C)NC(=O)[C@@H]2C[C@@H](O)CN2C(=O)[C@@H](NC(=O)COCCCCOc2ccc(C(=O)N[C@H]3C(C)(C)[C@H](Oc4ccc(C#N)c(Cl)c4)C3(C)C)cc2)C(C)(C)C)cc1` [Example 171, (2S,4R)-1-[(2S)-3,3-dimethyl-2-{2-[4-(4-{[trans-3-(3-chloro-4-cyanophenoxy)-2,2,4,4-tetramethylcyclobutyl]carbamoyl}phenoxy)butoxy]acetamido}butanoyl]-4-hydroxy-N-[(1R)-1-[4-(4-methyl-1,3-thiazol-5-yl)phenyl]ethyl]pyrrolidine-2-carboxamide], the maximal degradation (Dmax) was 26 to 50% and the DC50 was less than 50 nM.
For `Cc1ncoc1-c1ccc(CNC(=O)[C@@H]2C[C@@H](O)CN2C(=O)[C@@H](NC(=O)COCCCCCNc2ccc(C(=O)N[C@H]3C(C)(C)[C@H](Oc4ccc(C#N)c(Cl)c4)C3(C)C)cc2)C(C)(C)C)cc1` [Example 173, (2S,4R)-1-[(2S)-3,3-dimethyl-2-[2-({5-[(4-{[trans-3-(3-chloro-4-cyanophenoxy)-2,2,4,4-tetramethylcyclobutyl]carbamoyl}phenyl)amino]pentyl}oxy)acetamido]butanoyl]-4-hydroxy-N-{[4-(4-methyl-1,3-oxazol-5-yl)phenyl]methyl}pyrrolidine-2-carboxamide], in that order: more than 71% and less than 50 nM.
For `Cc1ncsc1-c1ccc(CNC(=O)[C@@H]2C[C@@H](O)CN2C(=O)[C@@H](NC(=O)COCCCCNc2ccc(C(=O)N[C@H]3C(C)(C)[C@H](Oc4ccc(C#N)c(Cl)c4)C3(C)C)cc2)C(C)(C)C)cc1` [Example 175, (2S,4R)-1-[(2S)-3,3-dimethyl-2-(2-{4-[(4-{[trans-3-(3-chloro-4-cyanophenoxy)-2,2,4,4-tetramethylcyclobutyl]carbamoyl}phenyl)amino]butoxy}acetamido)butanoyl]-4-hydroxy-N-{[4-(4-methyl-1,3-thiazol-5-yl)phenyl]methyl}pyrrolidine-2-carboxamide], in that order: 51 to 70% and less than 50 nM.
For `Cc1ncsc1-c1ccc(CNC(=O)[C@@H]2C[C@@H](O)CN2C(=O)[C@@H](NC(=O)COCCCCCNc2ccc(C(=O)N[C@H]3C(C)(C)[C@H](Oc4ccc(C#N)c(Cl)c4)C3(C)C)cc2F)C(C)(C)C)cc1` [Example 176, (2S,4R)-1-[(2S)-2-[2-({5-[(2-fluoro-4-{[trans-3-(3-chloro-4-cyanophenoxy)-2,2,4,4-tetramethylcyclobutyl]carbamoyl}phenyl)amino]pentyl}oxy)acetamido]-3,3-dimethylbutanoyl]-4-hydroxy-N-{[4-(4-methyl-1,3-thiazol-5-yl)phenyl]methyl} pyrrolidine-2-carboxamide], in that order: more than 71% and less than 50 nM.
Regarding `Cc1ncsc1-c1ccc([C@H](C)NC(=O)[C@@H]2C[C@@H](O)CN2C(=O)[C@@H](NC(=O)COCCCCNc2ccc(C(=O)N[C@H]3C(C)(C)[C@H](Oc4ccc(C#N)c(Cl)c4)C3(C)C)cc2)C(C)(C)C)cc1` [Example 177, (2S,4R)-1-[(2S)-3,3-dimethyl-2-(2-{4-[(4-{[trans-3-(3-chloro-4-cyanophenoxy)-2,2,4,4-tetramethylcyclobutyl]carbamoyl}phenyl)amino]butoxy}acetamido)butanoyl]-4-hydroxy-N-[(1S)-1-[4-(4-methyl-1,3-thiazol-5-yl)phenyl]ethyl]pyrrolidine-2-carboxamide], the Dmax is more than 71% and the DC50 is less than 50 nM.
On the same counts, the results for `Cc1ncsc1-c1ccc([C@@H](C)NC(=O)[C@@H]2C[C@@H](O)CN2C(=O)[C@@H](NC(=O)COCCCCNc2ccc(C(=O)N[C@H]3C(C)(C)[C@H](Oc4ccc(C#N)c(Cl)c4)C3(C)C)cc2)C(C)(C)C)cc1` [Example 178, (2S,4R)-1-[(2S)-3,3-dimethyl-2-(2-{4-[(4-{[trans-3-(3-chloro-4-cyanophenoxy)-2,2,4,4-tetramethylcyclobutyl]carbamoyl}phenyl)amino]butoxy}acetamido)butanoyl]-4-hydroxy-N-[(1R)-1-[4-(4-methyl-1,3-thiazol-5-yl)phenyl]ethyl]pyrrolidine-2-carboxamide] are 26 to 50% and less than 50 nM.

The values above are taken from US11427548B2 (Arvinas Operations, Inc., priority 2015, dated 2022).
